Assay [1] has as its target T1, His6-TEV-PPARγ-(234-505) (Homo sapiens, UniProt P37231).
T1 construct: The His6-TEV-PPARγ-(234-505) protein for assay was expressed and purified; TEV cleavage site (N); made in house
T1 sequence (P37231 234-505): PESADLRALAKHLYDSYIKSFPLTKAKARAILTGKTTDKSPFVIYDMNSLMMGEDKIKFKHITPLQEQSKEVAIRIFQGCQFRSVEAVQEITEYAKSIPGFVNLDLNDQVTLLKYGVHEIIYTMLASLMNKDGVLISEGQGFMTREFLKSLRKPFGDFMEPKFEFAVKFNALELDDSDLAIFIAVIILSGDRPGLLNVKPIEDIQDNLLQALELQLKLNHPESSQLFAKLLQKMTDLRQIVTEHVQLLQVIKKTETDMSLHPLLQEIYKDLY
The assay is described as follows: TR-FRET Assay to Measure Co-R Peptide Recruitment to PPARγ. Format: biochemical. The following applies: Co-R peptide (SMRT-ID2) recruitment; top final concentration 20 μM; read-out: TR-FRET i-Ag; AC50. An outline of the steps: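 His-tagged PPARγ (or controls) was preincubated with compound for 20 minutes at room temperature, then 5 nM anti-His terbium antibody and 200 nM FITC-labeled SMRT-ID2 corepressor peptide (final) were added for a further hour. TR-FRET signal was normalized to percent response using 500 nM T0070907 and DMSO controls.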
Background: In TR-FRET formats the signal depends on donor and acceptor labels being close together.

For assay [2], the system named is UM-UC-9 engineered cells. The assay is described as follows: Cell proliferation / short-term viability assay, CellTiter-Glo 144 h. The assay is classed as cell-based, human. Particulars: Homo sapiens, UM-UC-9, 144 h, read-out: CTGlo 144 h UMUC9.5, G150. An outline of the steps:
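UM-UC-9 engineered assay-ready cells seeded at 500 cells/well in high-glucose DMEM/10% FBS, treated from dose-response plates, grown at 37° C, 5% CO2. CellTiter-Glo 2.0 luminescence read on day 7, with a day-0 pretreatment plate as T0 reference and DMSO wells as negative control.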
(In ATP-based viability assays light output follows the ATP content of the culture.)

With `COc1cc(-c2cc(C(=O)N3CCC(C(=O)NCc4cccc(Cl)c4)CC3)n[nH]2)c(F)cn1` [Example 159, N-(3-chlorobenzyl)-1-(5-(5-fluoro-2-methoxypyridin-4-yl)-1H-pyrazole-3-carbonyl)piperidine-4-carboxamide], the AC50 in assay [1] was found to be 27.1 nM. For the same molecule, in assay [2], the IC50 worked out at 62.4 nM.

`COc1cc(-c2cc(C(=O)N3[C@@H]4CC[C@H]3C[C@H](C(=O)NCc3cccc(Cl)c3)C4)n[nH]2)c(F)cn1` [Example 160-A, (1R,3s,5S)—N-(3-chlorobenzyl)-8-(5-(5-fluoro-2-methoxypyridin-4-yl)-1H-pyrazole-3-carbonyl)-8-azabicyclo[3.2.1]octane-3-carboxamide]: the AC50 in assay [1] came to 11.5 nM. In addition, the IC50 in assay [2] was 38.2 nM.

For the molecule `COc1cc(-c2cc(C(=O)N3[C@@H]4CC[C@H]3C[C@@H](C(=O)NCc3cccc(Cl)c3)C4)n[nH]2)c(F)cn1` [Example 160-B, (1R,3r,5S)—N-(3-chlorobenzyl)-8-(5-(5-fluoro-2-methoxypyridin-4-yl)-1H-pyrazole-3-carbonyl)-8-azabicyclo[3.2.1]octane-3-carboxamide], the AC50 in assay [1] was found to be 14200 nM. The IC50 in assay [2] is over 10000 nM.

Take `COc1cc(-c2cc(C(=O)N3CCC(C(=O)N(C)Cc4cccc(Cl)c4)CC3)n[nH]2)c(F)cn1` [Example 161, N-(3-chlorobenzyl)-1-(5-(5-fluoro-2-methoxypyridin-4-yl)-1H-pyrazole-3-carbonyl)-N-methylpiperidine-4-carboxamide]: in assay [1], the AC50 was 941 nM. For the same molecule, the IC50 in assay [2] came to 1950 nM.

Turning to `COc1cc(-c2cc(C(=O)N3CCC(C(=O)NC4(C(F)(F)F)CCCC4)CC3)n[nH]2)c(Cl)cn1` [Example 162, 1-(5-(5-chloro-2-methoxypyridin-4-yl)-1H-pyrazole-3-carbonyl)-N-(1-(trifluoromethyl)cyclopentyl)piperidine-4-carboxamide], in assay [1], the AC50 worked out at 588 nM. Also, the IC50 in assay [2] was 908 nM.

Regarding `COc1cc(-c2cc(C(=O)N3CCC(C(=O)NCc4ccc(OC(F)(F)F)cc4)CC3)n[nH]2)c(Cl)cn1` [Example 164, 1-(5-(5-chloro-2-methoxypyridin-4-yl)-1H-pyrazole-3-carbonyl)-N-(4-(trifluoromethoxy)benzyl)piperidine-4-carboxamide], the AC50 in assay [1] is 608 nM. For the same molecule, in assay [2], the IC50 was determined as 1010 nM.

As for `COc1cc(-c2nc(C(=O)N3CCC(C(=O)NCc4cccc(Cl)c4)CC3)n[nH]2)c(F)cn1` [Example 166, N-[(3-chlorophenyl)methyl]-1-[5-(5-fluoro-2-methoxypyridin-4-yl)-1H-1,2,4-triazole-3-carbonyl]piperidine-4-carboxamide], the AC50 in assay [1] is 300 nM. Further, in assay [2], the IC50 was over 10000 nM.

As to `COc1cc(-c2cc(C(=O)N3CCC(C(=O)NCc4ccc5c(c4)CC(=O)N5)CC3)n[nH]2)c(Cl)cn1` [Example 167, 1-(5-(5-chloro-2-methoxypyridin-4-yl)-1H-pyrazole-3-carbonyl)-N-((2-oxoindolin-5-yl)methyl)piperidine-4-carboxamide], the AC50 in assay [1] stood at 112 nM. The IC50 in assay [2] is 4040 nM.

`COc1cc(-c2cc(C(=O)N3CCC(C(=O)NCc4cnc5[nH]ccc5c4)CC3)n[nH]2)c(Cl)cn1` [Example 168, N-((1H-pyrrolo[2,3-b]pyridin-5-yl)methyl)-1-(5-(5-chloro-2-methoxypyridin-4-yl)-1H-pyrazole-3-carbonyl)piperidine-4-carboxamide]: the AC50 in assay [1] was 45.7 nM. The IC50 in assay [2] was found to be 487 nM.

`COc1cc(-c2cc(C(=O)N3[C@@H]4CC[C@H]3C[C@H](C(=O)N[C@H]3CC[C@](O)(C(F)(F)F)CC3)C4)n[nH]2)c(F)cn1` [Example 170-B, (1R,3s,5S)-8-(5-(5-fluoro-2-methoxypyridin-4-yl)-1H-pyrazole-3-carbonyl)-N-((1s,4S)-4-hydroxy-4-(trifluoromethyl)cyclohexyl)-8-azabicyclo[3.2.1]octane-3-carboxamide]: in assay [1], the AC50 turned out to be 1110 nM. For the same molecule, the IC50 in assay [2] turned out to be 3560 nM.

The record behind these values is patent US12606541B2, “PPARg modulators and methods of use” (Eisai R&D Management Co., Ltd., priority 2020, dated 2026).
